Reference: publication PMC6791383, “A side-by-side evaluation of [^18F]FDOPA enantiomers for non-invasive detection of neuroendocrine tumors by positron emission tomography” (Oncotarget, 2019)

Tests used:
[1] = tested on: COLO-320 xenografts; experiment: Ex vivo biodistribution in NSG mice bearing COLO-320 xenografts; settings: for Biodistribution, Bladder / Biodistribution, Blood / Biodistribution, Bone / Biodistribution, Brain / Biodistribution, Fat / Biodistribution, Heart / Biodistribution, Kidneys / Biodistribution, Liver / Biodistribution, Lungs / Biodistribution, Muscle / Biodistribution, Pancreas / Biodistribution, Small Intestines / Biodistribution, Spleen / Biodistribution, Stomach / Biodistribution, Tumor: COLO-320 xenograft NSG mice, 1.5MBq i.v.
Procedure: All animal studies were carried out according to regulations set forth and approved by the Johns Hopkins Animal Care and Use Committee. Female, 6- to 8-weeks-old immunodeficient NOD scid gamma (NSG) mice were subcutaneously inoculated with 1 million PC12, STC-1 or COLO-320 cells in […] of Hank’s balanced salt solution in the top flank. Tumors of 4–6 mm in diameter (typically 14-21 days post inoculation) were utilized for in vivo imaging or ex vivo biodistribution studies.
Mice (n=5 per group) were intravenously injected with 1.5MBq (40μCi) of each tracer in 150μL of saline. Ex vivo biodistribution studies were performed at 30min and 120min time points after tracer administration. Blood, liver, spleen, heart, lungs, kidneys, small intestines, stomach, muscle, fat, bone, bladder, brain and tumor tissues were retrieved, weighed, and counted in an automated gamma counter (1282 Compugamma CS). Percentage injected dose per gram (%ID/g) values were calculated based on normalization to external standards, counted in triplicate, and accounted for signal-decay correction.

[2] = tested on: LAT1; experiment: In vivo PET-CT blocking by BCH in NET mouse models; set-up: species or system mice; settings: all NET mouse models (PC12, STC-1, COLO-320), 10meq LAT1 inhibitor
Procedure: Mice (n=4) were injected with 9MBq (250μCi) of each tracer in 150μL of saline intravenously and anesthetized with 3% isoflurane prior to being placed on the scanner bed. Mice were kept warm with an external light source and maintained at 1% isoflurane levels while being scanned. PET imaging (2 beds; 10 min per bed) was carried out using an ARGUS small-animal PET/CT scanner (Sedecal). A CT scan (512 projections) was obtained at the end of each PET scan for anatomical co-registration. For in vivo blocking experiments, mice were injected with 10meq of LAT1 inhibitor. PET data were reconstructed using the 2-dimensional ordered subsets-expectation maximization algorithm (2D-OSEM) and corrected for dead time and radioactive decay. Data visualization and image generation were carried out using Amira 2019.1 (ThermoFisher Scientific).
Quantitative in vivo image analysis was carried out in AMIDE (SourceForge) 1.0.4 utilizing ellipsoid region-of-interest volume integrations with 3 slices entailing a depth of 1.9 mm per slice. The %ID per cc values were calculated based on a calibration factor obtained from a phantom (known radioactive quantity in a known volume).

Q: With N[C@H](Cc1cc(O)c(O)cc1[18F])C(=O)O [D-[^18F]FDOPA, 3,4-dihydroxy-6-[^18F]fluoro-D-phenylalanine] as the molecule, how does the “pancreatic retention, fold lower compared to L-[^18F]FDOPA” value ([1]; COLO-320 mice, 120min p.i.) read?
A: Its value is 12 fold.

Q: And the “Biodistribution, Bladder” value ([1]; 30min p.i.)?
A: Its value is 3.81 %ID/g.

Q: And the “Biodistribution, Blood” value ([1]; 30min p.i.)?
A: Its value is 2.58 %ID/g.

Q: What about the “Biodistribution, Bone” value ([1]; 30min p.i.) of the same molecule?
A: Its value is 3.28 %ID/g.

Q: What about the “Biodistribution, Brain” value ([1]; 30min p.i.) of the same molecule?
A: The value was 0.19 %ID/g.

Q: And the “Biodistribution, Fat” value ([1]; 30min p.i.)?
A: Its value is 0.31 %ID/g.

Q: And the “Biodistribution, Heart” value ([1]; 30min p.i.)?
A: Its value is 1.57 %ID/g.

Q: What about the “Biodistribution, Kidneys” value ([1]; 30min p.i.) of the same molecule?
A: Its value is 7.05 %ID/g.

Q: And the “Biodistribution, Liver” value ([1]; 30min p.i.)?
A: Its value is 2.65 %ID/g.

Q: What about the “Biodistribution, Lungs” value ([1]; 30min p.i.) of the same molecule?
A: The value was 3.60 %ID/g.

Q: What about the “Biodistribution, Muscle” value ([1]; 30min p.i.) of the same molecule?
A: The value was 0.89 %ID/g.

Q: What about the “Biodistribution, Pancreas” value ([1]; 30min p.i.) of the same molecule?
A: Its value is 34.93 %ID/g.

Q: What about the “Biodistribution, Small Intestines” value ([1]; 30min p.i.) of the same molecule?
A: Its value is 3.89 %ID/g.

Q: And the “Biodistribution, Spleen” value ([1]; 30min p.i.)?
A: Its value is 4.77 %ID/g.

Q: What about the “Biodistribution, Stomach” value ([1]; 30min p.i.) of the same molecule?
A: The value was 2.48 %ID/g.

Q: What about the “Biodistribution, Tumor” value ([1]; 30min p.i.) of the same molecule?
A: Its value is 3.61 %ID/g.

Q: What about the “Biodistribution, Bladder” value ([1]; 120min p.i.) of the same molecule?
A: Its value is 3.68 %ID/g.

Q: What about the “Biodistribution, Blood” value ([1]; 120min p.i.) of the same molecule?
A: Its value is 0.51 %ID/g.

Q: And the “Biodistribution, Bone” value ([1]; 120min p.i.)?
A: Its value is 4.10 %ID/g.

Q: What about the “Biodistribution, Brain” value ([1]; 120min p.i.) of the same molecule?
A: The value was 0.19 %ID/g.

Q: What about the “Biodistribution, Fat” value ([1]; 120min p.i.) of the same molecule?
A: Its value is 0.29 %ID/g.

Q: What about the “Biodistribution, Heart” value ([1]; 120min p.i.) of the same molecule?
A: The value was 0.80 %ID/g.

Q: What about the “Biodistribution, Kidneys” value ([1]; 120min p.i.) of the same molecule?
A: The value was 1.44 %ID/g.

Q: And the “Biodistribution, Liver” value ([1]; 120min p.i.)?
A: Its value is 0.54 %ID/g.

Q: What about the “Biodistribution, Lungs” value ([1]; 120min p.i.) of the same molecule?
A: Its value is 1.52 %ID/g.

Q: And the “Biodistribution, Muscle” value ([1]; 120min p.i.)?
A: Its value is 1.12 %ID/g.

Q: And the “Biodistribution, Pancreas” value ([1]; 120min p.i.)?
A: Its value is 3.12 %ID/g.

Q: What about the “Biodistribution, Small Intestines” value ([1]; 120min p.i.) of the same molecule?
A: Its value is 1.46 %ID/g.

Q: What about the “Biodistribution, Spleen” value ([1]; 120min p.i.) of the same molecule?
A: Its value is 1.67 %ID/g.

Q: What about the “Biodistribution, Stomach” value ([1]; 120min p.i.) of the same molecule?
A: Its value is 0.99 %ID/g.

Q: What about the “Biodistribution, Tumor” value ([1]; 120min p.i.) of the same molecule?
A: Its value is 3.72 %ID/g.

Q: And the “tumor uptake after in vivo blocking by BCH” value [2]?
A: The value was “significantly reduced”.
